From patent publication US8574563B2 (Bristol-Myers Squibb Company, priority 2006, dated 2013) come the findings set out here.

For one experiment, the system named is HCV 1b-377-neo replicon cells. The experiment can be described thus: HCV replicon assay, HCV 1b-377-neo replicon cells (1b FRET). It is filed as cell-based, Hepatitis C virus genotype 1b. To be noted: HCV 1b-377-neo replicon cells; HCV 1b genotype; read-out: EC50 range against HCV 1b (Table 2, Range). In outline: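 Compounds tested in HCV genotype 1b-377-neo replicon cells with a FRET read-out. Cells resistant to a reference NS5A inhibitor through a Y2065H NS5A mutation were run alongside wild-type cells.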
For orientation: A replicon is a self-replicating genome or part of one, used to study replication in cells.
For orientation: EC50 means the concentration that produces a half-maximal response. As to `COC(=O)N[C@@H](C(=O)N1CCC[C@H]1c1ncc(-c2ccc(-c3ccc(-c4cnc([C@@H]5CCCN5C(=O)[C@H]5CCN(Cc6ccccc6)C5)[nH]4)cc3)cc2)[nH]1)c1ccccc1` [Example 84-28], the EC50 lay within 0.001 to 0.999 nM. For `CN(C)[C@@H](C(=O)N1CCC[C@H]1c1ncc(-c2ccc(-c3ccc(-c4cnc([C@@H]5CCCN5C(=O)c5ccc(N6CCOCC6)cc5)[nH]4)cc3)cc2)[nH]1)c1ccccc1` [Example 94-9, (1R)-N,N-dimethyl-2-((2S)-2-(5-(4′-(2-((2S)-1-(4-(4-morpholinyl)benzoyl)-2-pyrrolidinyl)-1H-imidazol-5-yl)-4-biphenylyl)-1H-imidazol-2-yl)-1-pyrrolidinyl)-2-oxo-1-phenylthanamine], the EC50 lay in the range of 0.001 to 0.999 nM. Regarding `CC[C@H](NC(=O)OC)C(=O)N1CCC[C@H]1c1ncc(-c2ccc(-c3ccc(-c4cnc([C@@H]5CCCN5C(=O)[C@H](CC)NC(=O)OC)[nH]4)cc3)cc2)[nH]1` [Example M21, dimethyl (4,4′-biphenyldiylbis(1H-imidazole-5,2-diyl(2S)-2,1-pyrroldinediyl((2S)-1-oxo-1,2-butanediyl)))biscarbamate], the EC50 lay within 1 to 99 nM.

The experiment is the same for the next values; noted with them: Hepatitis C virus, HCV 1b-377-neo replicon cells; HCV 1b genotype; read-out: EC50 range against HCV 1b (Table 2, Range).
On to `COC(=O)N[C@@H](C(=O)N1CCC[C@H]1c1ncc(-c2ccc(-c3ccc(-c4cnc([C@@H]5CCCN5C(=O)C(c5ccccc5)N5CCC(O)CC5)[nH]4)cc3)cc2)[nH]1)c1ccccc1` (stereo partly drawn) [Example 64, methyl ((1R)-2-((2S)-2-(5-(4′-(2-((2S)-1-((4-hydroxy-1-piperidinyl)(phenyl)acetyl)-2-pyrrolidinyl)-1H-imidazol-5-yl)-4-biphenylyl)-1H-imidazol-2-yl)-1-pyrrolidinyl)-2-oxo-1-phenylethyl)carbamate], for which the EC50 was 0.001 to 0.999 nM. `COC(=O)N[C@H](C(=O)N1CCC[C@H]1c1nc(-c2ccc(-c3ccc(-c4[nH]c([C@@H]5CCCN5C(=O)[C@@H](NC(=O)OC)C(C)C)nc4C)cc3)cc2)c(C)[nH]1)C(C)C` [Example E5l, methyl ((1S)-1-(((2S)-2-(4-(4′-(2-((2S)-1-((2S)-2-((methoxycarbonyl)amino)-3-methylbutanoyl)-2-pyrrolidinyl)-4-methyl-1H-imidazol-5-yl)-4-biphenylyl)-5-methyl-1H-imidazol-2-yl)-1-pyrrolidinyl)carbonyl)-2-methylpropyl)carbamate]: the EC50 was 0.001 to 0.999 nM.

For the molecule `COC(=O)N[C@@H](C(=O)N1CCC[C@H]1c1ncc(-c2ccc(-c3ccc(-c4cnc([C@@H]5CCCN5C(=O)CC5CC5)[nH]4)cc3)cc2)[nH]1)c1ccccc1` [Example 34, methyl ((1R)-2-((2S)-2-(5-(4′-(2-((2S)-1-(cyclopropylacetyl)-2-pyrrolidinyl)-1H-imidazol-5-yl)-4-biphenylyl)-1H-imidazol-2-yl)-1-pyrrolidinyl)-2-oxo-1-phenylethyl)carbamate], the EC50 fell in the range of 0.001 to 0.999 nM. As for `COC(=O)N[C@@H](Cn1cccn1)C(=O)N1CCC[C@H]1c1ncc(-c2ccc(-c3ccc(-c4cnc([C@@H]5CCCN5C(=O)[C@@H](NC(=O)OC)[C@@H](C)OC)[nH]4)cc3)cc2)[nH]1` [cj-39, methyl ((1S)-2-((2S)-2-(5-(4′-(2-((2S)-1-(N-(methoxycarbonyl)-O-methyl-L-threonyl)-2-pyrrolidinyl)-1H-imidazol-5-yl)-4-biphenylyl)-1H-imidazol-2-yl)-1-pyrrolidinyl)-2-oxo-1-(1H-pyrazol-1-ylmethyl)ethyl)carbamate], the EC50 lay within 0.001 to 0.999 nM. `CO[C@@H](C(=O)N1CCC[C@H]1c1ncc(-c2ccc(-c3ccc(-c4cnc([C@@H]5CCCN5C(=O)[C@H](OC)c5ccccc5)[nH]4)cc3)cc2)[nH]1)c1ccccc1` [Example 8, 5,5′-(4,4′-biphenyldiyl)bis(2-((2S)-1-((2R)-2-methoxy-2-phenylacetyl)-2-pyrrolidinyl)-1H-imidazole)]: the EC50 lay in the range of 0.001 to 0.999 nM. On to `COC(=O)N[C@@H](C(=O)N(C)[C@@H](C)c1ncc(-c2ccc(-c3ccc(-c4cnc([C@@H]5CCCN5C(=O)[C@@H](c5ccccc5)N5CCCCC5)[nH]4)cc3)cc2)[nH]1)c1ccccc1` [Example 131.1-2, methyl ((1R)-2-(methyl((1S)-1-(5-(4′-(2-((2S)-1-((2R)-2-phenyl-2-(1-piperidinyl)acetyl)-2-pyrrolidinyl)-1H-imidazol-5-yl)-4-biphenylyl)-1H-imidazol-2-yl)ethyl)amino)-2-oxo-1-phenylethyl)carbamate], for which the EC50 was 0.001 to 0.999 nM. Turning to `COC(=O)N[C@@H](C(=O)N1CCC[C@H]1c1ncc(-c2ccc(-c3ccc(-c4cnc([C@@H]5CCCN5C(=O)Cc5ccc(C)cc5)[nH]4)cc3)cc2)[nH]1)c1ccccc1` [Example 84-70, methyl ((1R)-2-((2S)-2-(5-(4′-(2-((2S)-1-((4-methylphenyl)acetyl)-2-pyrrolidinyl)-1H-imidazol-5-yl)-4-biphenylyl)-1H-imidazol-2-yl)-1-pyrrolidinyl)-2-oxo-1-phenylethyl)carbamate], the EC50 lay within 1 to 99 nM. As for `O=C(N[C@@H](C(=O)N1CCC[C@H]1c1ncc(-c2ccc(-c3ccc(-c4cnc([C@@H]5CCCN5C(=O)[C@H]5CCCO5)[nH]4)cc3)cc2)[nH]1)c1ccccc1)[C@H]1CCCO1` [Example 119, (2R)-N-((1R)-2-oxo-1-phenyl-2-((2S)-2-(5-(4′-(2-((2S)-1-((2R)-tetrahydro-2-furanylcarbonyl)-2-pyrrolidinyl)-1H-imidazol-5-yl)-4-biphenylyl)-1H-imidazol-2-yl)-1-pyrrolidinyl)ethyl)tetrahydro-2-furancarboxamide], the EC50 was 0.001 to 0.999 nM.

For the molecule `O=C(N[C@@H](C(=O)N1CCC[C@H]1c1ncc(-c2ccc(-c3ccc(-c4cnc([C@@H]5CCCN5C(=O)[C@@H]5CCCO5)[nH]4)cc3)cc2)[nH]1)c1ccccc1)[C@@H]1CCCO1` [Example 112, (2S)-N-((1R)-2-oxo-1-phenyl-2-((2S)-2-(5-(4′-(2-((2S)-1((2S)-tetrahydro-2-furanylcarbonyl)-2-pyrrolidinyl)-1H-imidazol-5-yl)-4-biphenylyl)-1H-imidazol-2-yl)-1-pyrrolidinyl)ethyl) tetrahydro-2-furancarboxamide], the EC50 fell in the range of 0.001 to 0.999 nM. The same measure, in the same setting: the figure for `CCN(CC)[C@H](C)C(=O)N1CCC[C@H]1c1ncc(-c2ccc(-c3ccc(-c4cnc([C@@H]5CCCN5C(=O)[C@@H](NC(=O)OC)C(C)C)[nH]4)cc3)cc2F)[nH]1` [Example D43, methyl ((1S)-1-(((2S)-2-(5-(4′-(2-((2S)-1-(N,N-diethyl-D-alanyl)-2-pyrrolidinyl)-1H-imidazol-5-yl)-3′-fluoro-4-biphenylyl)-1H-imidazol-2-yl)-1-pyrrolidinyl)carbonyl)-2-methylpropyl) carbamate] is 0.001 to 0.999 nM; for `COC(=O)N[C@@H](C(=O)N1CCC[C@H]1c1ncc(-c2ccc(-c3ccc(-c4cnc([C@@H]5CCCN5C(=O)[C@@H]5CC(F)(F)CN5)[nH]4)cc3)cc2)[nH]1)c1ccccc1` [Example 81, methyl ((1R)-2-((2S)-2-(5-(4′(2-((2S)-1-(4,4-difluoro-L-prolyl)-2-pyrrolidinyl)-1H-imidazol-5-yl)-4-biphenylyl)-1H-imidazol-2-yl)-1-pyrrolidinyl)-2-oxo-1-phenylethyl)carbamate] it is 0.001 to 0.999 nM; for `CN1CCN(C(C(=O)N2CCC[C@H]2c2ncc(-c3ccc(-c4ccc(-c5c[nH]c([C@@H]6CCCN6C(=O)[C@H]6CCCO6)n5)cc4)cc3)[nH]2)c2ccccc2)CC1` (stereo partly drawn) [Example 103-3, 1-methyl-4-(2-oxo-1-phenyl-2-((2S)-2-(5-(4′-(2-((2S)-1-((2R)-tetrahydro-2-furanylcarbonyl)-2-pyrrolidinyl)-1H-imidazol-4-yl)-4-biphenylyl)-1H-imidazol-2-yl)-1-pyrrolidinyl)ethyl)piperazine] it is 0.001 to 0.999 nM. With `CN(C)c1ccc(C(=O)N2CCC[C@H]2c2ncc(-c3ccc(-c4ccc(-c5cnc([C@@H]6CCCN6C(=O)[C@@H](c6ccccc6)N6CCCCC6)[nH]5)cc4)cc3)[nH]2)cc1` [Example 107-4, N,N-dimethyl-4-(((2S)-2-(5-(4′-(2-((2S)-1-((2R)-2-phenyl-2-(1-piperidinyl)acetyl)-2-pyrrolidinyl)-1H-imidazol-5-yl)-4-biphenylyl)-1H-imidazol-2-yl)-1-pyrrolidinyl)carbonyl)aniline], the EC50 was 0.001 to 0.999 nM. In the case of `COC(=O)N[C@H](C(=O)N1CCC[C@H]1c1ncc(-c2ccc(-c3ccc(-c4cnc([C@@H]5CCCN5C(=O)[C@@H](NC(=O)OC)c5ccccc5)[nH]4)cc3)cc2)[nH]1)c1ccccc1` [Example M12, dimethyl (4,4′-biphenyldiylbis(1H-imidazole-5,2-diyl(2S)-2,1-pyrrolidinediyl((1S)-2-oxo-1-phenyl-2,1-ethanediyl)))biscarbamate], the EC50 lay within 1 to 99 nM.

For `COC(=O)N[C@@H](C(=O)N1CCC[C@H]1c1ncc(-c2ccc(-c3ccc(-c4cnc([C@@H]5CCCN5C(=O)[C@H](NC(=O)OC)c5ccccc5)[nH]4)nn3)nn2)[nH]1)c1ccccc1` [Example 153c-2, dimethyl (3,3′-bipyridazine-6,6′-diylbis(1H-imidazole-5,2-diyl(2S)-2,1-pyrrolidinediyl((1R)-2-oxo-1-phenyl-2,1-ethanediyl)))biscarbamate], the half-maximal effective concentration (EC50) fell in the range of 1 to 99 nM. Regarding `CCCN(CCC)[C@H](C)C(=O)N1CCC[C@H]1c1ncc(-c2ccc(-c3ccc(-c4cnc([C@@H]5CCCN5C(=O)[C@@H](c5ccccc5)N(CC)CC)[nH]4)cc3)cc2)[nH]1` [Example M46, N-((1R)-2-((2S)-2-(5-(4′-(2-((2S)-1-((2R)-2-(diethylamino)-2-phenylacetyl)-2-pyrrolidinyl)-1H-imidazol-5-yl)-4-biphenylyl)-1H-imidazol-2-yl)-1-pyrrolidinyl)-1-methyl-2-oxoethyl)-N-propyl-1-propanamine], the EC50 lay within 1 to 99 nM. With `CN(C)[C@@H](C(=O)N1CCC[C@H]1c1ncc(-c2ccc(-c3ccc(-c4cnc([C@@H]5CCCN5C(=O)[C@H]5CCN(Cc6ccccc6)C5)[nH]4)cc3)cc2)[nH]1)c1ccccc1` [Example 94-26, (1R)-2-((2S)-2-(5-(4′-(2-((2S)-1-(((3S)-1-benzyl-3-pyrrolidinyl)carbonyl)-2-pyrrolidinyl)-1H-imidazol-5-yl)-4-biphenylyl)-1H-imidazol-2-yl)-1-pyrrolidinyl)-N,N-dimethyl-2-oxo-1-phenylethanamine], the EC50 is 0.001 to 0.999 nM.
